The values that follow come from patent publication US20030236229A1 (priority 1996, published 2003).

One experiment concerns the target T1, lysosomal mannosidase (Homo sapiens, UniProt O00754).
T1 sequence (O00754 50-1011): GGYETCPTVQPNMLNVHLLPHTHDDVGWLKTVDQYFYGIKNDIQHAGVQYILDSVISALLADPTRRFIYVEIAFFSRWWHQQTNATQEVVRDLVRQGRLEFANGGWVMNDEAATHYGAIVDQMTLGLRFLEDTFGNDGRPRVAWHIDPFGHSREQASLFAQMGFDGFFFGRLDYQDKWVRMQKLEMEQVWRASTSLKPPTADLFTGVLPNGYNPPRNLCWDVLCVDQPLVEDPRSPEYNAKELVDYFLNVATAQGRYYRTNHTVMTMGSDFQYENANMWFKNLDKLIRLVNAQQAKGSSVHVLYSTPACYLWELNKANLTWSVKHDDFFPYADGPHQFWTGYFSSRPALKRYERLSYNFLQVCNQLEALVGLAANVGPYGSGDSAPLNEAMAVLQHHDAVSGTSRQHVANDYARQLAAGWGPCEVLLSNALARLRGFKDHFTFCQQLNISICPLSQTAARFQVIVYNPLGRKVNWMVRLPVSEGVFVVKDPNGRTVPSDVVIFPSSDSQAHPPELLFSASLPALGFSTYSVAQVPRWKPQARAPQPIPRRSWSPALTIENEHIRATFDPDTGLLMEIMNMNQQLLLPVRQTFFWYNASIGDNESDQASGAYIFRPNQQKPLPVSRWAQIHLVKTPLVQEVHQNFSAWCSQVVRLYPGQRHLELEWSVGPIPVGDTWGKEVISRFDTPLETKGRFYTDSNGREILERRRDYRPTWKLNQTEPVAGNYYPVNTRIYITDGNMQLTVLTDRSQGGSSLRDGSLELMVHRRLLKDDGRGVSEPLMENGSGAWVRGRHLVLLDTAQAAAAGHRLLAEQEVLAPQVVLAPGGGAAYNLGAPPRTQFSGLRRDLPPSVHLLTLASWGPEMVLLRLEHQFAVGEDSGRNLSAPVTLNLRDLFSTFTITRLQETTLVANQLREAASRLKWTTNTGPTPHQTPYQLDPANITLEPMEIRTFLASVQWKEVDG
Put plainly: biochemical. The protocol:
(§1) 15 μl of α-mannosidase (Sigma 38 U/ml) was added to each well and the plates were incubated for 60 min at 37° C. The reaction was stopped by the addition of 50 μl of 0.5M sodium carbonate and formation of p-nitrophenol was measured with a plate set at […]. […] The reaction was stopped by the addition of 50 μl of 0.5M sodium carbonate and formation of p nitrophenol was measured with a plate set at 405.

For the next experiment, the system named is MDAY-D2 tumor cells. As to conditions: viable MDAY-D2 tumor cells; cited from earlier work.
The next experiment addresses T2, Golgi α-mannosidase II (Canavalia ensiformis, UniProt C0HJB3).
T2 sequence (C0HJB3 1-981): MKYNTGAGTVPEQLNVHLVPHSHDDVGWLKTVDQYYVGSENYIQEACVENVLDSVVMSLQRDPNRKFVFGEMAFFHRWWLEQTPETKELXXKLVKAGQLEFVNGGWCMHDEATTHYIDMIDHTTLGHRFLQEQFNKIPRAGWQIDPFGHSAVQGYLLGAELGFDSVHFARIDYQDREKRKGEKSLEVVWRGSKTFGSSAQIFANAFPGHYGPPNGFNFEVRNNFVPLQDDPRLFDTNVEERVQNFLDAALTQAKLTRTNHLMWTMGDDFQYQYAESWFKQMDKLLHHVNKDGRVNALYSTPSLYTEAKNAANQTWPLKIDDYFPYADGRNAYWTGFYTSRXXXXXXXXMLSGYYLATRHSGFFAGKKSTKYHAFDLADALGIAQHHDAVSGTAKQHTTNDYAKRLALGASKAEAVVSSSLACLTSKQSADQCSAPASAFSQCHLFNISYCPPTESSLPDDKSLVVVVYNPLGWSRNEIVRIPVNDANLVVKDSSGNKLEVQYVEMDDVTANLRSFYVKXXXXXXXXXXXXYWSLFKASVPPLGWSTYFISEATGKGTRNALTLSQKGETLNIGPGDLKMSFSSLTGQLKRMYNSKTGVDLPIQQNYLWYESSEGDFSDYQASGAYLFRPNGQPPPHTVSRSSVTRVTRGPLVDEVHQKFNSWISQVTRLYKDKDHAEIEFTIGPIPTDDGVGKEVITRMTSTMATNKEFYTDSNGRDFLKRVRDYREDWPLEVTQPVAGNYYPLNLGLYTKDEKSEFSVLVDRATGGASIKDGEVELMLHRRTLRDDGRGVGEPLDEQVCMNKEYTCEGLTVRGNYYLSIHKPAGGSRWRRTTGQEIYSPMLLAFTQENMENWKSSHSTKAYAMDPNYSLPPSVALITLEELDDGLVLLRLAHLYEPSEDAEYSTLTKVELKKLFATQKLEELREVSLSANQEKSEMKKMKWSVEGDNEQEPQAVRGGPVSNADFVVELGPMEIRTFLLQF
In kind it is biochemical. As to conditions: sodium acetate pH 5.6, 60 min at 37° C., p-nitrophenol read at 405; for IC50: read-out: MannoaidaseII Activity. The procedure: as §1

Where [1] appears, read: sodium acetate pH 5.0, 60 min at 37° C., p-nitrophenol read at 405, read-out: Lysosomal Mannosidase Activity.

Where a name gives a salt, the structure may show the parent alone. Read-outs that look alike come from different tables or passages of the source.

Turning to `CC1CCC(O)C2C(O)C(O)CN12` (single isomer, unassigned) [GD37], the IC50 on lysosomal mannosidase (setting [1]) was determined as 28.2 ± 7.85 µM.
Still for that read-out and setting: in the case of `OC1CN2C(COCc3ccccc3)CCC(O)C2C1O` (single isomer, unassigned) [GD42] it was 0.164 ± 0.0491 µM; in that of `CC1CCC(O)C2C(O)C(O)CN12` (single isomer, unassigned) [GD 20], 2.3 ± 1.13 µM; in that of `CC1CCC(O)C2C(O)C(O)CN12` (single isomer, unassigned) [GD 28], 0.316 ± 0.0759 µM.
Regarding `OC1CN2C(COCc3ccccc3)CCC(O)C2C1O` (single isomer, unassigned) [GD 91], the IC50 at lysosomal mannosidase (setting [1]) stood at 3.23 ± 0.268 µM.
For `N#CC1C(O)[C@@H](O)C2[C@H](O)CCCN12` (stereo in doubt) [GD 92, (1S, 2S, 3R/S, 8R, 8aS)-3-cyano-1,2,8-Trihydroxyoctahydroindolizine], the IC50 at lysosomal mannosidase (setting [1]) came to 30.1 ± 1.2 µM.
In the case of `CCCC(=O)OC1CN2CCCC(O)C2C1O` (stereo not shown) [2-butanoyloxy], in the experiment on MDAY-D2 tumor cells, the “activity as inhibitors of Golgi oligosaccharide processing” value (“activity as inhibitors” below) is “retained full activity”.
On to `CCCCCCCC(=O)OC1CN2CCCC(O)C2C1O` (stereo not shown) [2-octanoyloxy], for which the “activity as inhibitors” value in the experiment with MDAY-D2 tumor cells is on record as “retained full activity”.
As to `O=C(OC1CN2CCCC(O)C2C1O)c1ccc([N+](=O)[O-])cc1` (stereo not shown) [2-p-nitrobenzoyloxy], the “activity as inhibitors” value in the experiment with MDAY-D2 tumor cells is “retained full activity”.
`OC1=C(O)N2CCC[C@@H](O)[C@H]2[C@@H]1O` [(1S,8R,8aS)-1,5,6,7,8,8a-Hexahydro-1,2,3,8-indolizinetetraol]: the “MannoaidaseII Activity (μM)” value at Golgi α-mannosidase II is “No detectable”. For the same compound, the “Lysosomal Mannosidase Activity (μM)” value at lysosomal mannosidase (sodium acetate pH 5.0, 60 min at 37° C., p-nitrophenol read at 405) is recorded as “No detectable inhibition”.
For `OCC1C(O)C(O)C2C(O)CCCN12` (stereo not shown) [EJH-4-263, 3-hydroxymethyl-swainsonine], the IC50 was determined as 1.83 ± 1.3 µM at Golgi α-mannosidase II and 39.1 ± 16.3 µM at lysosomal mannosidase (setting [1]).
Take `OCC1C(O)C(O)C2C(O)CCCN12` (stereo not shown) [EJH-4-264, 3-hydroxymethyl-swainsonine]: at lysosomal mannosidase (setting [1]), the IC50 turned out to be 1.7 ± 0.5 µM.
With `CC1CCC(O)C2C(O)C(O)CN12` [GD19, (5R)-5-Methylswainsonine formate salt], the IC50 at lysosomal mannosidase (setting [1]) was found to be 1.45 ± 0.071 µM.
Still for that read-out and setting: in the case of `C[C@H]1[C@@H](CO)C[C@@H](O)[C@@H]2[C@H](O)[C@H](O)CN21` [GD40, (5S,6S)-6-Hydroxymethyl-5-methylswainsonine] it was 62.4 ± 17.9 µM; in that of `C[C@@H]1[C@H](CO)C[C@@H](O)[C@@H]2[C@H](O)[C@H](O)CN21` [GD44, (5R,6R)-6-Hydroxymethyl-5-methylswainsonine], 24.5 ± 7.62 µM; in that of `OC[C@H]1CC[C@@H](O)[C@@H]2[C@H](O)[C@H](O)CN12` [GD45, (5R)-5-(Hydroxymethyl)swainsonine], 0.705 ± 0.309 µM.
As for `CCOC(=O)C1CC(O)C2C(O)C(O)CN2C1C` [GD84, ethyl (5R,6R)-5-methylswainsonine-6-carboxylate], the IC50 on lysosomal mannosidase (setting [1]) is 1500 ± 707 µM.
On to `O=C1[C@H](O)[C@@H](O)[C@@H]2[C@H](O)CCCN12` [GD 35, (1S,2R,8R,8aS)-1,2,8-Trihydroxyhexahydo-3(2II)-indolizinone], for which the IC50 was 1030 µM at Golgi α-mannosidase II and 1090 µM at lysosomal mannosidase (setting [1]).
Regarding `CCOC(=O)[C@H]1C[C@H](O)[C@@H]2[C@@H](O)[C@H](O)CN2[C@H]1C` [GD 36, ethyl (1R,2R,5S,6S,8S,8aR)-1,2,8-trihydroxy-5-methyloctahydro-6-indolizinecarboxylate], the IC50 on lysosomal mannosidase (setting [1]) was 120 ± 32.2 µM.
The same measure, in the same setting: for `CC[C@H]1CC[C@@H](O)[C@@H]2[C@H](O)[C@H](O)CN12` [GD 38, (5S)-5-Ethylswainsonine] the value was 0.36 ± 0.313 µM; for `OC[C@@H]1CC[C@@H](O)[C@@H]2[C@H](O)[C@H](O)CN12` [GD 46, (5S)-5-(Hydroxymethyl)swainsonine], 1.48 ± 0.455 µM.
The compound `O[C@H]1[C@H]2[C@H](O)CCCN2C[C@H]1O` [Swainsonine, reference compound] came in with an IC50 at lysosomal mannosidase (Lysosomal Mannosidase Activity (μM)) of 0.08 ± 0.079 µM.
